Experimental data reported in patent publication US9376442B2, “Methylpyrrolopyrimidinecarboxamides” (Takeda GmbH, priority 2009, dated 2016).

Target: T1, PDE5A1 (Homo sapiens, UniProt O76074)
T1 construct: from tissue; host or cells: human platelets from fresh donor blood (10,000 x g supernatant of sonicated lysate)
Assay: Inhibition of type 5 phosphodiesterase (PDE5) activity, modified SPA test with human platelet lysate
Assay type: biochemical
Conditions: 0.5 μM cGMP, read-out: PDE5A1 inhibitory values [measured as −log IC50 (mol/l)] (converted)
How it was run: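 Enzyme source is lysate from human platelets (10,000 g supernatant). Compound preincubated 5 min at 37° C in Tris pH 7.4 containing 1 μM motapizone and 10 nM of a PDE2 inhibitor. Reaction started with 0.5 μM cGMP ([3H] tracer) and run 15 min; SPA read-out, IC50 by non-linear regression.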

IC50 [nM] | Structure (SMILES)
< 1 | CC(=O)c1ccc(OCC2CC2)c(-c2ncnc3c(C(=O)N[C@H]4CC[C@H](NC(=O)[C@H](C)O)CC4)c(C)[nH]c23)c1 [Example F105, 4-[5-Acetyl-2-(cyclopropylmethoxy)phenyl]-N-(trans-4-{[(2S)-2-hydroxypropanoyl]amino}cyclohexyl)-6-methyl-5H-pyrrolo[3,2-d]pyrimidine-7-carboxamide]
< 1 | COCC(=O)N1CCC(NC(=O)c2c(C)[nH]c3c(-c4ccc(F)cc4OCC4CC4)ncnc23)CC1 [Example E21, 4-[2-(Cyclopropylmethoxy)-4-fluorophenyl]-N-[1-(methoxyacetyl)piperidin-4-yl]-6-methyl-5H-pyrrolo[3,2-d]pyrimidine-7-carboxamide]
< 1 | CC(=O)N1CCC(NC(=O)c2c(C)[nH]c3c(-c4cc(C)c(F)cc4OCC4CC4)ncnc23)CC1 [Example E119, N-(1-Acetylpiperidin-4-yl)-4-[2-(cyclopropylmethoxy)-4-fluoro-5-methylphenyl]-6-methyl-5H-pyrrolo[3,2-d]pyrimidine-7-carboxamide]
< 1 | COc1cc(-c2ncnc3c(C(=O)N[C@H]4CN(C(=O)CO)CC[C@@H]4O)c(C)[nH]c23)c(OCC2CC2)cc1F (relative stereo) [Example F73, 4-[2-(Cyclopropylmethoxy)-4-fluoro-5-methoxyphenyl]-N-[(3S*,4S*)-1-glycoloyl-4-hydroxypiperidin-3-yl]-6-methyl-5H-pyrrolo[3,2-d]pyrimidine-7-carboxamide]
1 to 10 | CC(=O)N1CC[C@@H](NC(=O)c2c(C)[nH]c3c(-c4cc(F)ccc4OCC4CC4)ncnc23)C1 [Example E46, N-[(3R)-1-acetylpyrrolidin-3-yl]-4-[2-(cyclopropylmethoxy)-5-fluorophenyl]-6-methyl-5H-pyrrolo[3,2-d]pyrimidine-7-carboxamide]
< 1 | Cc1[nH]c2c(-c3ccc(F)cc3OCC3CC3)ncnc2c1C(=O)NC1CCN(C(=O)CO)CC1 [Example F11, 4-[2-(Cyclopropylmethoxy)-4-fluorophenyl]-N-(1-glycoloylpiperidin-4-yl)-6-methyl-5H-pyrrolo[3,2-d]pyrimidine-7-carboxamide]
< 1 | COc1cc(-c2nc(C)nc3c(C(=O)NC4CCN(C(=O)[C@H](C)O)CC4)c(C)[nH]c23)c(OCC2CC2)cc1F [Example F110, 4-[2-(Cyclopropylmethoxy)-4-fluoro-5-methoxyphenyl]-N-{1-[(2S)-2-hydroxypropanoyl]piperidin-4-yl}-2,6-dimethyl-5H-pyrrolo[3,2-d]pyrimidine-7-carboxamide]
< 1 | Cc1cc(-c2ncnc3c(C(=O)N[C@H]4CC[C@H](NC(=O)CO)CC4)c(C)[nH]c23)c(OCC2CC2)cc1F [Example F77, 4-[2-(Cyclopropylmethoxy)-4-fluoro-5-methylphenyl]-N-{trans-4-[(hydroxyacetyl)amino]cyclohexyl}-6-methyl-5H-pyrrolo[3,2-d]pyrimidine-7-carboxamide]
< 1 | COc1ccc(-c2ncnc3c(C(=O)N[C@H]4CC[C@H](NC(C)=O)CC4)c(C)[nH]c23)c(OCC2CC2)c1 [Example E58, N-(trans-4-acetamidocyclohexyl)-4-[2-(cyclopropylmethoxy)-4-methoxyphenyl]-6-methyl-5H-pyrrolo[3,2-d]pyrimidine-7-carboxamide]
< 1 | COCC(=O)N1CC[C@@H](NC(=O)c2c(C)[nH]c3c(-c4cc(F)c(OC)cc4OCC4CC4)ncnc23)C1 [Example E188, 4-[2-(Cyclopropylmethoxy)-5-fluoro-4-methoxyphenyl]-N-[(3R)-1-(methoxyacetyl)pyrrolidin-3-yl]-6-methyl-5H-pyrrolo[3,2-d]pyrimidine-7-carboxamide]
1 to 10 | CCC(=O)N1C[C@@H](O)[C@H](NC(=O)c2c(C)[nH]c3c(-c4cc(OC)ccc4OCC4CC4)ncnc23)C1 (relative stereo) [Example E193, 4-[2-(Cyclopropylmethoxy)-5-methoxyphenyl]-N-[(3R*,4R*)-4-hydroxy-1-propionylpyrrolidin-3-yl]-6-methyl-5H-pyrrolo[3,2-d]pyrimidine-7-carboxamide]
1 to 10 | CCC(=O)N1CC[C@@H](NC(=O)c2c(C)[nH]c3c(-c4cc(F)ccc4OCC4CC4)ncnc23)C1 [Example E47, 4-[2-(Cyclopropylmethoxy)-5-fluorophenyl]-6-methyl-N-[(3R)-1-propanoylpyrrolidin-3-yl]-5H-pyrrolo[3,2-d]pyrimidine-7-carboxamide]
< 1 | COCC(=O)N1CC[C@H](O)[C@@H](NC(=O)c2c(C)[nH]c3c(-c4cc(OC)c(F)cc4OCC4CC4)ncnc23)C1 (relative stereo) [Example E118, 4-[2-(cyclopropylmethoxy)-4-fluoro-5-methoxyphenyl]-N-[(3S*,4S*)-4-hydroxy-1-(methoxyacetyl)piperidin-3-yl]-6-methyl-5H-pyrrolo[3,2-d]pyrimidine-7-carboxamide]
< 1 | CCOC(=O)N[C@H]1CC[C@H](NC(=O)c2c(C)[nH]c3c(-c4cc(OC)c(F)cc4OCC4CC4)ncnc23)CC1 [Example E109, Ethyl {trans-4-[({4-[2-(cyclopropylmethoxy)-4-fluoro-5-methoxyphenyl]-6-methyl-5H-pyrrolo[3,2-d]pyrimidin-7-yl}carbonyl)amino]cyclohexyl}carbamate]
1 to 10 | CCc1ccc(OCC2CC2)c(-c2ncnc3c(C(=O)NC4CN(C(=O)C(C)O)CC4O)c(C)[nH]c23)c1 (mixture of isomers) [Example F98, Diastereomeric mixture of 4-[2-(cyclopropylmethoxy)-5-ethylphenyl]-N{(3R,4R)-4-hydroxy-1-[(2S)-2-hydroxypropanoyl]pyrrolidin-3-yl}-6-methyl-5H-pyrrolo[3,2-d]pyrimidine-7-carboxamide and 4-[2-(cyclopropylmethoxy)-5-ethylphenyl]-N-{(3S,4S)-4-hydroxy-1-[(2S)-2-hydroxypropanoyl]pyrrolidin-3-yl}-6-methyl-5H-pyrrolo[3,2-d]pyrimidine-7-carboxamide]
< 1 | Cc1[nH]c2c(-c3ccc(F)cc3OCC3CC3)ncnc2c1C(=O)NC1CCN(C(=O)[C@H](C)O)CC1 [Example F12, 4-[2-(Cyclopropylmethoxy)-4-fluorophenyl]-N-{1-[(2S)-2-hydroxypropanoyl]piperidin-4-yl}-6-methyl-5H-pyrrolo[3,2-d]pyrimidine-7-carboxamide]
< 1 | COc1ccc(OCC2CC2)c(-c2ncnc3c(C(=O)N[C@@H]4CCN(C(=O)[C@H](C)O)C4)c(C)[nH]c23)c1 [Example F48, 4-[2-(cyclopropylmethoxy)-5-methoxyphenyl]-N-{(3R)-1-[(2S)-2-hydroxypropanoyl]pyrrolidin-3-yl}-6-methyl-5H-pyrrolo[3,2-d]pyrimidine-7-carboxamide]
1 to 10 | COCC(=O)N1C[C@@H](O)[C@H](NC(=O)c2c(C)[nH]c3c(-c4ccc(F)cc4OCC4CC4)ncnc23)C1 (relative stereo) [Example E33, 4-[2-(Cyclopropylmethoxy)-4-fluorophenyl]-N-[(3R*,4R*)-4-hydroxy-1-(methoxyacetyl)pyrrolidin-3-yl]-6-methyl-5H-pyrrolo[3,2-d]pyrimidine-7-carboxamide]
< 1 | CC(=O)N1C[C@@H](O)[C@H](NC(=O)c2c(C)[nH]c3c(-c4c(OCC5CC5)ccc5c4OCO5)ncnc23)C1 (relative stereo) [Example E16, N-[(3R*,4R*)-1-acetyl-4-hydroxypyrrolidin-3-yl]-4-[5-(cyclopropylmethoxy)-1,3-benzodioxol-4-yl]-6-methyl-5H-pyrrolo[3,2-d]pyrimidine-7-carboxamide]
< 1 | CCC(=O)N1CC[C@@H](NC(=O)c2c(C)[nH]c3c(-c4cc(OC)c(F)cc4OCC4CC4)ncnc23)[C@H](O)C1 (relative stereo) [Example E114, 4-[2-(Cyclopropylmethoxy)-4-fluoro-5-methoxyphenyl]-N-[(3R*,4R*)-3-hydroxy-1-propionylpiperidin-4-yl]-6-methyl-5H-pyrrolo[3,2-d]pyrimidine-7-carboxamide]
< 1 | COc1cc(OCC2CC2)c(-c2ncnc3c(C(=O)NC4CCN(C(=O)[C@H](C)O)CC4)c(C)[nH]c23)cc1F [Example F84, 4-[2-(Cyclopropylmethoxy)-5-fluoro-4-methoxyphenyl]-N-{1-[(2S)-2-hydroxypropanoyl]piperidin-4-yl}-6-methyl-5H-pyrrolo[3,2-d]pyrimidine-7-carboxamide]
< 1 | COCC(=O)N[C@H]1CC[C@H](NC(=O)c2c(C)[nH]c3c(-c4cc(C(C)=O)ccc4OCC4CC4)ncnc23)CC1 [Example E168, 4-[5-Acetyl-2-(cyclopropylmethoxy)phenyl]-N-{trans-4-[(methoxyacetyl)amino]cyclohexyl}-6-methyl-5H-pyrrolo[3,2-d]pyrimidine-7-carboxamide]
< 1 | CC(=O)c1ccc(OCC2CC2)c(-c2ncnc3c(C(=O)NC4CCN(C(=O)CO)CC4)c(C)[nH]c23)c1 [Example F102, 4-[5-Acetyl-2-(cyclopropylmethoxy)phenyl]-N-[1-(hydroxyacetyl)piperidin-4-yl]-6-methyl-5H-pyrrolo[3,2-d]pyrimidine-7-carboxamide]
1 to 10 | Cc1[nH]c2c(-c3cc(F)ccc3OCC3CC3)ncnc2c1C(=O)N[C@@H]1CCN(C(=O)[C@H](C)O)C1 [Example F29, 4-[2-(Cyclopropylmethoxy)-5-fluorophenyl]-N-{(3R)-1-[(2S)-2-hydroxypropanoyl]pyrrolidin-3-yl}-6-methyl-5H-pyrrolo[3,2-d]pyrimidine-7-carboxamide]
1 to 10 | CCOc1ccc(F)cc1-c1ncnc2c(C(=O)NC3CCN(C(C)=O)CC3)c(C)[nH]c12 [Example E52, N-(1-acetylpiperidin-4-yl)-4-(2-ethoxy-5-fluorophenyl)-6-methyl-5H-pyrrolo[3,2-d]pyrimidine-7-carboxamide]
